Experimental data as given in patent US5665515A, “Method for obtaining a printing plate according to the silver salt diffusion transfer process” (Agfa-Gevaert N.V., priority 1994, dated 1997).

Experiment: pKa of the mercapto group by titration with hydrochloric acid in water
Format: physicochemical
Settings: 0.002 mole/liter, dissolved at pH 11, titrated with 0.1 mole/liter hydrochloric acid
Method: The pKa of the mercapto-compounds in connection with the present invention were determined according to the method described in "Ionization Constants of Acids and Bases--A Laboratory Manual" written by Adrien Albert and E. P. Serjeant and Edited by John Wiley & Sons (New York) page 110-112 (1962).
In these particular cases, the compounds were dissolved in water at pH 11. The concentration of the compounds was 0.002 mole/liter and the mixture was then titrated with a solution of hydrochloric acid (0.1 mole/liter).

| pKa | Structure (SMILES) |
| --- | --- |
| 3.3 | CCCCN(CCCC)C(=O)Cn1nnnc1S [compound 2] |
| 3.4 | CCCCCCCCn1nnnc1S [compound 4] |
| 3.2 | CCCCn1nnnc1S [compound 5] |
| 3.1 | Sc1nnnn1-c1ccccc1 [compound 6] |
